The results in this text go back to the METLIN SMRT retention time set (Domingo-Almenara et al. 2019).

The data set in a line: gradient 5% acetonitrile 3 min, to 50% in 2 min, to 85% in 15 min, held 3 min, 100 µL/min. To be noted: column: Zorbax Extend-C18 2.1 x 50 mm; eluents: water / acetonitrile, 0.1% formic acid. The essentials: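 Using water and acetonitrile that each contained 0.1% formic acid, mixtures of ~100 pure standards were separated at 100 μL/min on a Zorbax Extend-C18 column (2.1 × 50 mm, 1.8 μm). The HPLC fed a quadrupole time-of-flight mass spectrometer working in positive and negative ionization mode, with dead and dwell volumes of 40 μL and 900 μL. Data were acquired over 3 months. Retention time was read from computationally picked adduct peaks after manual inspection of each.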
The compound `CN(C)CC1CCC2=C(C1=O)C(c1ccc(Cl)c(Cl)c1)C1=C(CCC(CN(C)C)C1=O)O2` (centres undefined) registered an RP-LC retention time of 584 s.
In the case of `CC1CC(=O)N(CC(=O)Nc2ccc(C(F)(F)F)cc2)c2ccccc2S1(=O)=O` (centres undefined) it was 904 s.
In the case of `Cc1ccc(NC(=O)C2CCN(S(=O)(=O)c3cc(C(=O)N(C)C)cs3)CC2)c(C)c1` it was 804 s; in that of `COc1cc(NC(=O)NC(C)C(=O)N2CCc3ccccc32)cc(OC)c1` (centres undefined), 817 s; in that of `O=C1COc2ccc(Cl)cc2N1Cc1nc(-c2ccc(F)cc2)no1`, 1070 s.
In the case of `Cn1cc(CN2CCC(C(=O)N3CCN(c4ccccn4)CC3)CC2)c2cc(Cl)ccc21` it was 584 s; in that of `CCCNC(=O)CCc1c(-c2ccc(F)cc2)nc2ccccn12`, 608 s; in that of `CN(Cc1ccco1)C(=O)c1c2c(nc3ccccc13)C(=O)N(C1CCCCC1)C2`, 844 s.
`Cc1ccc(Cn2cc(-c3ccncc3)cc2C(=O)NCC(C)C)cc1` returned an RP-LC retention time of 720 s.
In the case of `O=C(CN1C(=O)C2CCCCN2c2ccc(C(=O)N3CCOCC3)cc21)Nc1ccc(Cl)cc1` (centres undefined) it was 832 s.
As for `Cc1cccc(NS(=O)(=O)c2cn(CC(C)C)c3ncccc23)c1`, the figure is 960 s.
In the case of `CCNC(=O)CN1C(=O)CCn2nc(-c3cn(C)c4ccccc34)cc21` it was 656 s; in that of `COc1ccccc1NC(=O)NCC(c1cccnc1)c1cn(C)c2ccccc12` (centres undefined), 678 s.
`Cc1ccc(C(=O)NCCc2ncc(C)n2C2CCC2)s1`: the RP-LC retention time stood at 564 s.
In turn, `CN1CCCCCCN(C(=O)c2cc(CN3CCOCC3)on2)[C@H]2CCC[C@H]2C1=O` returned an RP-LC retention time of 614 s.
In turn, `Cc1ncoc1C(=O)NCC1Cn2cccc2C(=O)N1CC(C)C` (centres undefined) gave an RP-LC retention time of 647 s.
In the case of `CCCCS(=O)(=O)c1cc2c(cc1NC(=O)c1cccc(F)c1)n(C)c(=O)n2C` it was 966 s.
In the case of `Cc1nc(-c2ccc3c(c2)n(CC(=O)N2c4ccccc4CC2C)c(=O)n3C(C)C)no1` (centres undefined) it was 989 s; in that of `CC(=O)N1CCc2cc(N3CC(C(=O)Nc4ccc5c(c4)OCCO5)CC3=O)ccc21` (centres undefined), 667 s.
On to `CCn1c(=O)sc2cc(S(=O)(=O)N3CCC(C(=O)NCc4cccs4)CC3)ccc21`, for which the RP-LC retention time was 832 s.
Compound `CC1CCN(S(=O)(=O)c2ccc3c(ccn3CC(=O)NCC(C)c3ccccc3)c2)CC1` (centres undefined) gave an RP-LC retention time of 1070 s.
In the case of `COc1ccc(S(=O)(=O)N2CCCC(C(=O)NCC3CCCO3)C2)cc1OC` (centres undefined) it was 684 s; in that of `CCCCc1c(-c2ccc(OC)cc2)[nH]c2nccnc12`, 912 s.
As to `CC(=O)Nc1ccc(Cc2nc(-c3cccc(-c4ccnn4C)c3)no2)cc1`, the RP-LC retention time is 874 s.
The compound `O=S(=O)(NC1CCCCC1)c1cc(-c2noc(C3CCCC3)n2)cs1` came in with an RP-LC retention time of 1230 s.
As for `CCN(CC)CCNC(=O)c1nnc(-c2ccc(S(=O)(=O)N3CCC(C)CC3)cc2)o1`, the figure is 696 s; as for `Cc1ccc(NC(=O)Nc2ccc3nncn3c2)cc1`, 700 s.
As for `COc1ccc(CC(=O)N2CCc3c(c(CO)nn3CC3CC3)C2)cc1`, the figure is 715 s; as for `Cc1ccc(-c2nnc(Cc3nc(-c4cccnc4)no3)o2)cc1F`, 812 s; as for `COc1ccc(NC(=O)N2CCC(CCOc3cccnc3)CC2)cc1`, 630 s.
As for `O=C(Cn1c(=O)n(-c2ccccc2)c2ncccc21)NCCCN1CCCC1`, the figure is 586 s; as for `Cc1cc2c(cc1C(=O)NCCc1c[nH]c3ccccc13)OCCCO2`, 824 s; as for `CC1CN(C(=O)N2CCC(C(=O)N3CCC(C(N)=O)CC3)CC2)c2cc(Cl)ccc2O1` (centres undefined), 679 s.
Take `CN(C)C(=O)c1cc2c(s1)CCC(C(=O)Nc1ccc3c(c1)OCCO3)C2` (centres undefined): the RP-LC retention time was determined as 764 s.
On to `O=C(NCc1cc(F)cc(F)c1)C1CCN(c2nnc(-c3ccccc3)o2)CC1`, for which the RP-LC retention time worked out at 844 s.
`CCC1CN(C(=O)N2CCC(C(=O)NCCN3CCN(CC)CC3)CC2)c2ccccc2O1` (centres undefined) registered an RP-LC retention time of 617 s.
In the case of `COC(=O)c1cc(OCC(=O)Nc2cc(F)ccc2F)c2ccccc2n1` it was 838 s; in that of `CN(C)S(=O)(=O)N1CCCC1Cc1noc(-c2cccnc2)n1` (centres undefined), 746 s; in that of `COc1cccc(CNC(=O)C2CCCN(c3nnc4ccc(Cl)cn34)C2)c1OC` (centres undefined), 754 s.
`CCC(=O)N1CCc2nc(N3CCN(C(=O)CCOC)CC3)sc2C1` displayed an RP-LC retention time of 875 s.
In the case of `COc1ccc(C)cc1NS(=O)(=O)c1cc2c3c(c1)CCC(=O)N3CCC2` it was 973 s; in that of `COc1cccc(S(=O)(=O)N2CCC(c3cc(N)on3)CC2)c1`, 756 s.
`Fc1ccc(OCc2nn3c(-c4cccnc4)nnc3s2)cc1` showed an RP-LC retention time of 781 s.
As for `CCn1cc(CCNC(=O)c2cc(F)ccc2Cl)c2cccnc21`, the figure is 729 s; as for `O=C(Nc1ccc(F)cc1)c1csc(-c2ccc(N3CCCC3)nc2)n1`, 743 s.
In the case of `COc1ccccc1NC(=O)Cn1nc(N2CCOCC2)c2ccccc2c1=O` it was 819 s; in that of `Cc1cccc(NC(=O)Cn2cnc3nc(N4CCC(C(=O)NC5CC5)CC4)sc3c2=O)c1`, 658 s; in that of `Cc1nc2cc(N3CC(C(=O)NCc4ccc(Cl)cc4)CC3=O)ccc2o1` (centres undefined), 743 s.
`CC(C(=O)NCCN(C)Cc1ccccc1)n1c(=O)c(C(F)(F)F)nc2ccccc21` (centres undefined): the RP-LC retention time was 735 s.
As for `O=S(=O)(Nc1ccc(Cl)cn1)c1cc(-c2noc(C3CCCC3)n2)cs1`, the figure is 1070 s.
As for `CCCNC(=O)C1CCN(c2ccc(SCC(=O)Nc3ccc(F)c(Cl)c3)nn2)CC1`, the figure is 692 s; as for `COc1ccc2c(c1)[C@H]1OCCC[C@H]1C(c1ccc(C(=O)O)cc1)N2` (some centres undefined), 820 s; as for `Cc1ccc(NC(=O)Nc2nccn(-c3cccc(Cl)c3)c2=O)cc1F`, 1000 s.
As for `O=C(c1ccsc1)N1CCCC1c1nc(-c2ccc(F)cc2F)no1` (centres undefined), the figure is 907 s; as for `Cc1ccc(C(=O)N2CCC(c3nc4ccncc4n3CC(C)C)C2)s1` (centres undefined), 569 s; as for `Cc1nc(-c2cn(C(C)C)c3ncccc23)sc1C(=O)N1CCCCC1`, 958 s.
With `CCC(C)NC(=O)c1ccc2ccnc(N3CCN(c4ccc(F)cc4)CC3)c2c1` (centres undefined), the RP-LC retention time came to 785 s.
In the case of `Cc1ccc(CC(=O)NC2CCN(c3cc(-c4ccc(Cl)cc4)[nH]n3)C2)cc1` (centres undefined) it was 807 s; in that of `COc1ccccc1NC(=O)CSC1CCc2ccccc2NC1=O` (centres undefined), 793 s.
